Assay: In vivo biodistribution of ^225Ac complexes after intravenous injection
Set-up: species or system C57BL/6 mice
Method: In Vivo Biodistribution of ^225Ac Complexes of Macropa and DOTA. All experiments were approved by the Institutional Animal Care Committee (IACC) of the University of British Columbia and were performed in accordance with the Canadian Council on Animal Care Guidelines. A total of 9 female C57BL/6 mice (6-8 weeks old, 20-25 g) were used for the biodistribution study of each radiometal complex, n=3 for each time point.
Macropa (100 μL of a 1 mg/mL solution in NH4OAc) was diluted with 387 μL of NH4OAc (1 M, pH 7), and an aliquot (203 μL) of ^225Ac(NO3)3 (˜157 kBq) was then added; the pH of this solution was adjusted to 6.5-7 by the addition of 1 M NaOH (210 μL, trace metal grade). After 5 min at ambient temperature, the reaction solution was analyzed by TLC (0.4 M pH 4 sodium citrate as the eluent), which confirmed >95% radiochemical yield. The reaction was allowed to proceed overnight, and the radiochemical yield was again confirmed to be >95% the following morning. At this time, mice were anesthetized by 2% isoflurane, and approximately 100 μL (10-15 kBq) of the [^225Ac(macropa)]^+ complex were injected into the tail vein of each mouse. After injection, mice were allowed to recover and roam freely in their cages, and were euthanized by CO2 inhalation at 15 min, 1 h, or 5 h (n=3 at each time point) post-injection. Blood was collected by cardiac puncture and placed into an appropriate test tube for scintillation counting. Tissues collected included heart, liver, kidneys, lungs, small intestine, large intestine, brain, bladder, spleen, stomach, pancreas, bone, thyroid, tail, urine, and feces. Tissues were weighed and then counted with a calibrated gamma counter (Packard, Cobra II model 5002) using three energy windows: 60-120 keV (window A), 180-260 keV (window B), and 400-480 keV (window C). Counting was performed both immediately after sacrifice and after 7 days; counts were decay corrected from the time of injection and then converted to the percentage of injected dose (% ID) per gram of tissue (% ID/g). No differences were noted between the data; therefore, the biodistributions are reported using the data acquired immediately using window A.
The biodistribution studies of [^225Ac(DOTA)]^− and ^225Ac(NO3)3 were carried out as described above for [^225Ac(macropa)]^+, with the following modifications. [^225Ac(DOTA)]^− was prepared by adding ^225Ac(NO3)3 (338 μL, 1.1 MBq) to a solution of DOTA (100 μg, 20 mg/mL in H2O) in NH4OAc (467 μL, 0.15 M, pH 7). The pH of the solution was adjusted to 7 using NH4OAc (150 μL, 1 M, pH 7) and the solution was heated at 85° C. for 45 min. RCY>99% was confirmed by TLC as described above. [^225Ac(DOTA)]^− was diluted with saline to a final concentration of 0.05 MBq/100 μL, and 100 μL were injected into each mouse. ^225Ac(NO3)3 (˜58 μL, 0.4 MBq) was diluted and injected in the same manner as [^225Ac(DOTA)]^−. One mouse that was to be euthanized at the 5 h time point in the [^225Ac(DOTA)]^− study died shortly after injection. In the same manner, one mouse that was to be euthanized at the 1 h time point in the ^225Ac(NO3)3 study died.
The in vivo stability [^225Ac(macropa)]^+ was examined by comparing its biodistribution to those of ^225Ac(NO3)3 and [^225Ac(DOTA)]^−. C57BL/6 mice were injected via tail vein with 10-50 kBq of each radiometal complex and were sacrificed after 15 min, 1 h, or 5 h. The amount of ^225Ac retained in each organ was quantified by gamma counting and reported as the percent of injected dose per gram of tissue (% ID/g). The results of these studies are compiled in Tables 1-3. Inadequate stability of an ^225Ac complex leading to the loss of radioisotope in vivo is manifested by the accumulation of ^225Ac in the liver, spleen, and bone of mice.^[11,12,32] […] The biodistribution profile of [^225Ac(macropa)]^+ (FIG. 3B) differs markedly from that of ^225Ac(NO3)3. […]

[1] = 15 min after i.v. injection, energy window A (60-120 keV)
[2] = 15 min after i.v. injection, energy window B (180-260 keV)
[3] = 15 min after i.v. injection, energy window C (400-480 keV)
[4] = 1 h after i.v. injection, energy window A (60-120 keV)
[5] = 1 h after i.v. injection, energy window B (180-260 keV)
[6] = 1 h after i.v. injection, energy window C (400-480 keV)
[7] = 5 h after i.v. injection, energy window A (60-120 keV)
[8] = 5 h after i.v. injection, energy window B (180-260 keV)
[9] = 5 h after i.v. injection, energy window C (400-480 keV)
[10] = i.v. injection, C57BL/6 mice, up to 5 h

## O=[N+]([O-])[O-].O=[N+]([O-])[O-].O=[N+]([O-])[O-].[225Ac] [^225Ac(NO3)3]
[1]
  % ID/g in bladder: 1.477 % ID/g
  % ID/g in blood: 40.966 % ID/g
  % ID/g in bone (femur + joint): 2.764 % ID/g
  % ID/g in brain: 0.614 % ID/g
  % ID/g in feces: 0.240 % ID/g
  % ID/g in heart: 8.557 % ID/g
  % ID/g in kidneys: 10.468 % ID/g
  % ID/g in large intestines: 1.116 % ID/g
  % ID/g in liver: 22.899 % ID/g
  % ID/g in lungs: 12.757 % ID/g
  % ID/g in pancreas: 2.366 % ID/g
  % ID/g in small intestines: 2.002 % ID/g
  % ID/g in spleen: 22.733 % ID/g
  % ID/g in stomach: 2.348 % ID/g
  % ID/g in tail: 7.459 % ID/g
  % ID/g in thyroids: 4.391 % ID/g
  % ID/g in urine: 5.527 % ID/g
[2]
  % ID/g in bladder: 1.6996 % ID/g
  % ID/g in blood: 41.5628 % ID/g
  % ID/g in bone (femur + joint): 2.7487 % ID/g
  % ID/g in brain: 0.6536 % ID/g
  % ID/g in feces: 0.3857 % ID/g
  % ID/g in heart: 8.3605 % ID/g
  % ID/g in kidneys: 9.6424 % ID/g
  % ID/g in large intestines: 1.1570 % ID/g
  % ID/g in liver: 23.6091 % ID/g
  % ID/g in lungs: 12.9714 % ID/g
  % ID/g in pancreas: 2.2821 % ID/g
  % ID/g in small intestines: 1.9641 % ID/g
  % ID/g in spleen: 24.0497 % ID/g
  % ID/g in stomach: 2.3704 % ID/g
  % ID/g in tail: 8.0722 % ID/g
  % ID/g in thyroids: 9.6295 % ID/g
  % ID/g in urine: 5.0951 % ID/g
[3]
  % ID/g in bladder: 1.9351 % ID/g
  % ID/g in blood: 42.3521 % ID/g
  % ID/g in bone (femur + joint): 3.4560 % ID/g
  % ID/g in brain: 0.6755 % ID/g
  % ID/g in feces: 0.4896 % ID/g
  % ID/g in heart: 9.0992 % ID/g
  % ID/g in kidneys: 14.2266 % ID/g
  % ID/g in large intestines: 1.5716 % ID/g
  % ID/g in liver: 24.1147 % ID/g
  % ID/g in lungs: 14.4797 % ID/g
  % ID/g in pancreas: 2.4405 % ID/g
  % ID/g in small intestines: 2.0956 % ID/g
  % ID/g in spleen: 25.4263 % ID/g
  % ID/g in stomach: 2.4232 % ID/g
  % ID/g in tail: 9.1381 % ID/g
  % ID/g in thyroids: 3.5934 % ID/g
  % ID/g in urine: 19.8282 % ID/g
[4]
  % ID/g in bladder: 0.9047 % ID/g
  % ID/g in blood: 20.8234 % ID/g
  % ID/g in bone (femur + joint): 2.4707 % ID/g
  % ID/g in brain: 0.2995 % ID/g
  % ID/g in feces: 0.2189 % ID/g
  % ID/g in heart: 4.4261 % ID/g
  % ID/g in kidneys: 7.2170 % ID/g
  % ID/g in large intestines: 0.6035 % ID/g
  % ID/g in liver: 39.8269 % ID/g
  % ID/g in lungs: 8.2412 % ID/g
  % ID/g in pancreas: 2.1771 % ID/g
  % ID/g in small intestines: 1.5594 % ID/g
  % ID/g in spleen: 34.8831 % ID/g
  % ID/g in stomach: 1.6211 % ID/g
  % ID/g in tail: 5.7939 % ID/g
  % ID/g in thyroids: 2.5988 % ID/g
  % ID/g in urine: 4.5194 % ID/g
[5]
  % ID/g in bladder: 0.8092 % ID/g
  % ID/g in blood: 21.4460 % ID/g
  % ID/g in bone (femur + joint): 2.7705 % ID/g
  % ID/g in brain: 0.3247 % ID/g
  % ID/g in feces: 0.3300 % ID/g
  % ID/g in heart: 4.5832 % ID/g
  % ID/g in kidneys: 6.8770 % ID/g
  % ID/g in large intestines: 0.5629 % ID/g
  % ID/g in liver: 41.0995 % ID/g
  % ID/g in lungs: 8.4426 % ID/g
  % ID/g in pancreas: 2.1579 % ID/g
  % ID/g in small intestines: 1.5192 % ID/g
  % ID/g in spleen: 37.1540 % ID/g
  % ID/g in stomach: 1.5867 % ID/g
  % ID/g in tail: 6.4201 % ID/g
  % ID/g in thyroids: 5.7426 % ID/g
  % ID/g in urine: 7.0564 % ID/g
[6]
  % ID/g in bladder: 2.2929 % ID/g
  % ID/g in blood: 11.3736 % ID/g
  % ID/g in bone (femur + joint): 2.7213 % ID/g
  % ID/g in brain: 0.4402 % ID/g
  % ID/g in feces: 0.1122 % ID/g
  % ID/g in heart: 3.3464 % ID/g
  % ID/g in kidneys: 6.2070 % ID/g
  % ID/g in large intestines: 0.4366 % ID/g
  % ID/g in liver: 23.6180 % ID/g
  % ID/g in lungs: 5.2078 % ID/g
  % ID/g in pancreas: 1.8508 % ID/g
  % ID/g in small intestines: 3.5548 % ID/g
  % ID/g in spleen: 38.1082 % ID/g
  % ID/g in stomach: 2.3350 % ID/g
  % ID/g in tail: 9.0877 % ID/g
  % ID/g in thyroids: 0.0000 % ID/g
  % ID/g in urine: 104.9103 % ID/g
[7]
  % ID/g in bladder: 1.4947 % ID/g
  % ID/g in blood: 1.9886 % ID/g
  % ID/g in bone (femur + joint): 3.5460 % ID/g
  % ID/g in brain: 0.0452 % ID/g
  % ID/g in feces: 0.9445 % ID/g
  % ID/g in heart: 1.3450 % ID/g
  % ID/g in kidneys: 4.6910 % ID/g
  % ID/g in large intestines: 0.6479 % ID/g
  % ID/g in liver: 59.8156 % ID/g
  % ID/g in lungs: 4.1871 % ID/g
  % ID/g in pancreas: 0.4874 % ID/g
  % ID/g in small intestines: 1.3704 % ID/g
  % ID/g in spleen: 62.9614 % ID/g
  % ID/g in stomach: 2.6131 % ID/g
  % ID/g in tail: 23.4055 % ID/g
  % ID/g in thyroids: -2.7052 % ID/g
  % ID/g in urine: 4.8267 % ID/g
[8]
  % ID/g in bladder: 1.5234 % ID/g
  % ID/g in blood: 2.0018 % ID/g
  % ID/g in bone (femur + joint): 3.8533 % ID/g
  % ID/g in brain: 0.0290 % ID/g
  % ID/g in feces: 1.0201 % ID/g
  % ID/g in heart: 1.3948 % ID/g
  % ID/g in kidneys: 3.8752 % ID/g
  % ID/g in large intestines: 0.6744 % ID/g
  % ID/g in liver: 62.0765 % ID/g
  % ID/g in lungs: 4.3379 % ID/g
  % ID/g in pancreas: 0.4455 % ID/g
  % ID/g in small intestines: 1.2201 % ID/g
  % ID/g in spleen: 65.9117 % ID/g
  % ID/g in stomach: 2.5322 % ID/g
  % ID/g in tail: 25.4744 % ID/g
  % ID/g in thyroids: −4.6044 % ID/g
  % ID/g in urine: 3.3142 % ID/g
[9]
  % ID/g in bladder: 3.4975 % ID/g
  % ID/g in blood: 2.1769 % ID/g
  % ID/g in bone (femur + joint): 3.5851 % ID/g
  % ID/g in brain: 0.0430 % ID/g
  % ID/g in feces: 0.8535 % ID/g
  % ID/g in heart: 1.2018 % ID/g
  % ID/g in kidneys: 4.2061 % ID/g
  % ID/g in large intestines: 1.0259 % ID/g
  % ID/g in liver: 54.1727 % ID/g
  % ID/g in lungs: 5.4923 % ID/g
  % ID/g in pancreas: 0.4643 % ID/g
  % ID/g in small intestines: 1.2922 % ID/g
  % ID/g in spleen: 62.2357 % ID/g
  % ID/g in stomach: 2.0358 % ID/g
  % ID/g in tail: 28.4443 % ID/g
  % ID/g in thyroids: -0.4455 % ID/g
  % ID/g in urine: 5.8548 % ID/g
[10]
  clearance from blood / mice (in words): slow blood clearance and excretion
  organ accumulation (in words): large accumulation in the liver and spleen

Reference: US11554182B2, “Macrocyclic complexes of alpha-emitting radionuclides and their use in targeted radiotherapy of cancer” (CORNELL UNIVERSITY, priority 2017, dated 2023)
